2 compounds from patent US12350250B2, “Aggrelytes for treating ocular conditions” (The Regents of the University of Colorado, a Body Corporate, priority 2022, dated 2025) can be followed below.

Data set [1] in a line: Stability of aggrelytes under physiological conditions (1H-NMR). Type of data set: physicochemical. To be noted: 50 mM phosphate buffer, pH 7.4, 37° C.; for degraded during 3-day incubation: 3 days; for degraded during 7-day incubation: 7 days. On the procedure:
Aggrelyte-2 (N,S-diacetyl-L-cysteine methyl ester; Astatech Catalog #D95910) and Aggrelyte-2C (N-acetyl cysteine methyl ester; Sigma Aldrich Catalog #01042) (2 mg each) were incubated in 1 mL of 50 mM phosphate buffer, pH 7.4, at 37° C. Aliquots were withdrawn immediately after incubation (Day 0) and after 1, 3, and 7 days. Stability of the aggrelytes was tested using ^1H-NMR (in DMSO-d6) spectroscopy. The NMR peak integration values for the S-acetyl or N-acetyl cysteine methyl proton were compared with the cysteine methine proton.

Data set [2] has as its system water-insoluble (WI) proteins from human lenses. Briefly: Solubilization of water-insoluble (WI) proteins from human lenses (BCA protein assay of supernatant). Type of data set: biochemical. As to conditions: 500 μM; for protein in the supernatant / solubilized protein, % of the initial WI protein / solubilized protein, % of the initial protein: ten human lenses (65 to 75 years). As to the method: Human lenses (donor age: 55-75 years) were obtained from Saving Sight, Kansas City, MO, and Lions Eye Institute for Transplant & Research, Tampa, FL. The lenses were harvested within 36 hours postmortem, stored with (when used for culturing) or without minimum essential medium (MEM), and shipped to the inventors' laboratory on ice or frozen on dry ice. Lenses shipped on dry ice (used in the presently described and other solubility studies) were stored at −80° C. until use. Each frozen lens was thawed on ice and homogenized with 1.5 mL of PBS in a hand-held glass homogenizer. The homogenate was centrifuged at 20,000×g for 20 min at 4° C. The supernatant was discarded, and the pellet was suspended in 1 mL of homogenization buffer and centrifuged at 20,000×g for 20 min at 4° C. The resulting pellet was lyophilized and designated the water-insoluble (WI) fraction.
In the present example, the ability of aggrelytes to solubilize WI proteins from a human lens was investigated. Stock solutions (10 mM) of Aggrelyte-2 and Aggrelyte-2C were prepared in 50 mM phosphate buffer. The WI fraction (2 mg) was incubated in 50 mM sodium phosphate buffer (0.4 mL), pH 7.4, at 37° C. with aggrelyte at a final concentration of 0-2000 μM. The mixture was incubated at 37° C. with shaking for 24 or 48 hours after adding 0.002% sodium azide to prevent bacterial growth. After incubation, the samples were centrifuged at 20,000×g for 20 min at 4° C., and the supernatants were collected. Protein in the supernatant was measured using a BCA Protein Assay Kit from Thermo Scientific (Waltham, MA) using BSA as the standard.
WI fractions from ten aged human lenses (65 to 75 years) were prepared as in Example 3. The WI fractions (2 mg) were incubated in 50 mM sodium phosphate buffer (0.4 mL), pH 7.4, at 37° C. with 500 μM aggrelyte for 24 or 48 hours. Each sample was separately processed three times and analyzed (mean±S.D.).

The subject of data set [3] is AcK in solubilized WI protein of human lenses. As to the kind of experiment: AcK in solubilized human lens proteins (LC-MS/MS). Type of data set: biochemical. To be noted: 500 μM, 24 hours; for AcK level: solubilized WI protein, human lenses (55-67 years). On the procedure: Water-insoluble proteins were prepared from aged human lenses (55-67 years) as described in Example 3, and incubated with 0 or 500 μM Aggrelyte-2 or Aggrelyte-2C for 24 hours as described in Example 3. Solubilized WI protein fractions (0.5 mg/mL) and water soluble (WS) protein fractions (3 mg/mL from human lenses) were sequentially digested with enzymes as previously described (Nandi et al., 2019, Biochemistry, 58(9):1260-1274). The enzyme-digested samples were analyzed for AcK by LC-MS/MS using the standard addition method as previously described (id.) The AcK levels were calculated based on the protein input in the enzymatic digestions.

The test system of data set [4] is β-crystallin (βC). Briefly: Crystallin levels in solubilized human lens proteins (Western blot), βC. The class given is biochemical. To be noted: 500 μM, solubilized proteins of three human lenses. As to the method: The contents of crystalline proteins [αA-crystallin (αAC), αB-crystallin (αBC), β-crystallin (βC), and γ-crystallin (γC)] in the solubilized proteins of three human lenses treated with either Aggrelyte-2 or Aggrelyte-2C (500 μM) from Example 4 were determined by Western blot analysis as described for Example 5. Membranes were incubated with antibodies against αAC (1:14,000 dilution; Enzo Life Sciences, Catalog #ADI-SPA-221D), αBC (1:700,000 dilution; University of Iowa), βC (1:14,000 dilution; Santa Cruz Biotechnology, Catalog #sc-22745), and γC (1:7,000 dilution; Santa Cruz Biotechnology, Catalog #sc-22746). The secondary antibodies were HRP-conjugated anti-mouse IgG for αBC and HRP-conjugated […] (Cell Signaling Technology, Catalog #7074S) for αAC, βC, and γC. According to the supplier, the […] detects mostly βB1-crystallin and, to a lesser extent, βA1/3, βA2, βA4, βB2, and βB3-crystallin. The γC antibody reacts with γA, γB, γC, γD, γE, and γF-crystallin.

For data set [5], the system named is protein thiols of solubilized human lens WI protein. Briefly: Protein thiol content in solubilized protein from WI protein of aged lenses. The class given is biochemical. As to conditions: 500 μM aggrelyte, lenses 58 to 69 years old; for thiol content: 10 μg protein, GSH standard. On the procedure:
Protein thiol content in the solubilized protein from WI protein from aged lenses (58 to 69 years old) was evaluated. Immediately after treatment with aggrelytes as described in the foregoing examples, 0.15 mL samples were filtered through 10 kDa cutoff centrifugal filters at 4° C. Centrifugal filtration was repeated twice by adding 0.4 mL of 50 mM N2-bubbled sodium phosphate buffer to the retentate each time. Ten micrograms of protein from the final retentate was used for thiol content estimation using a Thiol Quantification Assay Kit (Abcam, Cambridge, MA) using reduced GSH as the standard.

Data set [6] has as its system human lenses. As to the kind of experiment: Water-soluble (WS) protein content of aggrelyte-treated human lenses. As to conditions: 1 mM, 72 h. As to the method:
Water soluble (WS) proteins were obtained from both mouse and human lenses. For mouse lenses, WS protein was obtained by homogenizing each mouse lens in 0.2 mL of PBS, followed by centrifugation at 20,000×g for 20 min at 4° C. […] The remaining nucleus was homogenized in 1 mL phosphate buffer. Both cortical and nuclear protein extracts were centrifuged at 20,000×g for 20 min at 4° C. to obtain the soluble protein in the supernatant. In another set of experiments, human lenses (42-64 years), following incubation with aggrelytes as described in the foregoing examples, were each homogenized with 1.5 mL 50 mM phosphate buffer, pH 7.4. The homogenate was centrifuged at 20,000×g for 20 min to obtain a supernatant. Protein in the supernatant was evaluated to determine the effect of aggrelyte treatment on the soluble protein content in the lens.

The test system of data set [7] is human lenses. Briefly: AcK-bearing proteins in WS cortical and nuclear fractions of treated human lenses (Western blot). To be noted: 1 mM, 72 h, vs untreated controls. On the procedure: For Western blotting, 10-20 μg of protein from each lens sample was used and each sample was separately processed three times and analyzed.

As to `COC(=O)[C@H](CSC(C)=O)NC(C)=O` [Aggrelyte-2, N,S-diacetyl-L-cysteine methyl ester], in data set [1], the “degraded during 3-day incubation” value is recorded as 30% and the “degraded during 7-day incubation” value amounted to 42%. Besides, in data set [2] (24-hour incubation), the “protein in the supernatant” value was 0.97 to 1.30 µg/µL and the “solubilized protein, % of the initial WI protein” value was 20-26%. For the same compound, in data set [2] (24 and 48 hours, combined ten lenses), the “solubilizing WI proteins, fold better than Control or Aggrelyte-2C” value is given as around 1.4 fold. In data set [2] (48-hour incubation), the “protein in the supernatant” value lay in the range of 0.96 to 1.48 µg/µL and the “solubilized protein, % of the initial protein” value is recorded as 19-30%. For the same compound, in data set [3] (combined mean values), the “AcK levels, fold increase compared to Aggrelyte-2C-treated samples” value was found to be 2.4 fold and the “AcK levels, fold increase compared to untreated controls” value is on record as 1.9 fold. For the same compound, in data set [3], the AcK level is recorded as 1.5-2.1 nmol/mg protein. Further, in data set [4], the “levels of βC vs Controls” value is “slightly but not significantly higher”. Further, in data set [5], the thiol content was in the range of 0.3 to 0.7 µM and the “thiol content, fold higher than in the untreated controls” value stood at 1.9 fold. In addition, in data set [6], the “WS content, % higher than in the untreated controls (contralateral lenses)” value came out at 13.2%. In data set [7], the “AcK levels, cortical protein fraction (Western blot)” value was “significantly increases” and the “AcK levels, nuclear protein fraction (Western blot)” value is listed as “significantly increases”.
Regarding `COC(=O)[C@H](CS)NC(C)=O` [Aggrelyte-2C, N-acetyl-L-cysteine methyl ester], in data set [1], the “degraded during 3-day incubation” value is given as 21% and the “degraded during 7-day incubation” value was 37%. In data set [2] (24-hour incubation), the “protein in the supernatant” value lay in the range of 0.72 to 0.97 µg/µL and the “solubilized protein, % of the initial WI protein” value is 14-19%. Besides, in data set [2] (48-hour incubation), the “protein in the supernatant” value lay within 0.68 to 1.12 µg/µL and the “solubilized protein, % of the initial protein” value was 14-22%. Also, in data set [2] (48 hours, human lens), the “protein solubility, fold less than that of Aggrelyte-2” value is around 1.4 fold. Further, the AcK level in data set [3] is on record as 0.6-0.9 nmol/mg protein. In addition, the “levels of βC vs Controls” value in data set [4] is on record as “no effect”. In data set [5], the thiol content lay within 1.1 to 1.6 µM; the “thiol content, fold higher than in the untreated controls” value came out at 4.9 fold; the “thiol content, fold increase over Aggrelyte-2-treated samples” value is listed as 2.6 fold. The “WS content, % higher than in the untreated controls (contralateral lenses)” value in data set [6] is recorded as 4.6%. In data set [7], the “AcK levels, cortical protein fraction (Western blot)” value is “not statistically different” and the “AcK levels, nuclear protein fraction (Western blot)” value is reported as “not statistically different”.
